{"source": "patent US20260364124A1", "about": "“ANTI-C. DIFFICILE SMALL MOLECULE METABOLITES FROM DIET AND GUT MICROBIOME” (The Children's Medical Center Corporation, priority 2023, published 2026)", "key": {"B. uniformis AgshD": {"tested_on": "B. uniformis AgshD", "experiment": "In vitro aglycone liberation by B. uniformis gshD deletion mutant (LC-MS)", "set-up": "species or system Bacteroides uniformis ATCC 8492", "settings": "role: substrate; B. uniformis AgshD (FIGS. 5A, 5B)", "experimental": "(§1) FIGS. 5A and 5B show microbiome-mediated polyphenol aglycone liberation. […] Step 2: Spent media was filter-sterilized. Step 3: C. difficile was grown in spent media from either vehicle or polydatin (top).\n(§2) Generation of Bacteroides gene deletion mutants: Clean deletion mutants were created by allelic replacement whereby Bacteroides uniformis ATCC 8492 gshD (BACUNI_00919)was deleted. A modified pKNOCK-bla-ermGb suicide vector, pKNOCK-bla-ermGb_pheS*, that was previously engineered with a counter-selection system mediated by a variant phenylalanyl-tRNA synthetase (PheSA303G), lethal in the presence of 4-chloro-phenylalanine was leveraged. To generate deletion constructs, 1 kb regions flanking the genomic region-of-interest were amplified by PCR (Platinum SuperFi PCR Master Mix), purified, and cloned into the pKNOCK-bla-ermGb_pheS* plasmid in a three-piece ligation reaction. To mobilize resulting plasmids into Bacteroides, a triparental mating strategy was implemented. Overnight cultures of Bacteroides grown in BSG were diluted 50-fold into fresh pre-reduced BSG and grown to early exponential phase (OD600 ~0.1). The recipient strain was centrifuged at 4,000 rpm for 5 minutes and resuspended in 200 μL of 1× PBS. One-day-old E. coliDH5α lambda pir donor strain and E. coliDH5α helper strain with pRK 231 were scrapped from LB agar plates into 200 μL of 1× PBS. […]"}, "C. difficile M7404": {"tested_on": "C. difficile M7404", "experiment": "In vitro polydatin bioactivation and C. difficile antagonism by conditioned (spent) media of B. uniformis AgshD", "format": "cell-based, Clostridioides difficile", "settings": "polydatin 500 μM, 1/2-diluted, C. difficile M7404 growth 12 h (FIG. 5A)", "experimental": "as §1, §2"}}, "note": "Entries after “also recorded” stand apart in the source; their conditions may differ."}
{"smiles": "OC[C@H]1O[C@@H](Oc2cc(O)cc(/C=C/c3ccc(O)cc3)c2)[C@H](O)[C@@H](O)[C@@H]1O", "note": "[polydatin]", "values": [{"measurement": "liberation of resveratrol from polydatin by gshD mutant", "setting": "B. uniformis AgshD", "result": "lacking the ability to metabolize polydatin; also recorded: ablated in B. uniformis AgshD"}, {"measurement": "anti-C. difficile activity of conditioned media from B. uniformis gshD mutant grown with polydatin", "setting": "C. difficile M7404", "result": "ablated in B. uniformis AgshD"}]}
